This note sets out measurements from ChEMBL document CHEMBL1154433, “Synthesis of new substituted azetidinoyl and thiazolidinoyl-1,3,4-thiadiazino (6,5-b) indoles as promising anti-inflammatory agents” (Eur J Med Chem, 2008).

Data set [1] in a line: Acute toxicity in orally dosed albino mouse after 24 hrs. It is filed as organism-based, albino Charles-Foster. Particulars: in vivo, po, read-out: ALD50.
A further data set concerns Rattus norvegicus. Nature of the data set: Antiinflammatory activity in albino Charles-Foster rat assessed as inhibition of carrageenan-induced paw oedema at 50 mg/kg, po measured before 1 hr and after 3 hrs of carrageenan challenge relative to control. It is filed as functional. A general note: Carrageenan injected into the paw causes an acute inflammation.
The target in data set [2] is T1, Prostaglandin G/H synthase 2 (Homo sapiens) (UniProt P35354).
T1 sequence (whole entry): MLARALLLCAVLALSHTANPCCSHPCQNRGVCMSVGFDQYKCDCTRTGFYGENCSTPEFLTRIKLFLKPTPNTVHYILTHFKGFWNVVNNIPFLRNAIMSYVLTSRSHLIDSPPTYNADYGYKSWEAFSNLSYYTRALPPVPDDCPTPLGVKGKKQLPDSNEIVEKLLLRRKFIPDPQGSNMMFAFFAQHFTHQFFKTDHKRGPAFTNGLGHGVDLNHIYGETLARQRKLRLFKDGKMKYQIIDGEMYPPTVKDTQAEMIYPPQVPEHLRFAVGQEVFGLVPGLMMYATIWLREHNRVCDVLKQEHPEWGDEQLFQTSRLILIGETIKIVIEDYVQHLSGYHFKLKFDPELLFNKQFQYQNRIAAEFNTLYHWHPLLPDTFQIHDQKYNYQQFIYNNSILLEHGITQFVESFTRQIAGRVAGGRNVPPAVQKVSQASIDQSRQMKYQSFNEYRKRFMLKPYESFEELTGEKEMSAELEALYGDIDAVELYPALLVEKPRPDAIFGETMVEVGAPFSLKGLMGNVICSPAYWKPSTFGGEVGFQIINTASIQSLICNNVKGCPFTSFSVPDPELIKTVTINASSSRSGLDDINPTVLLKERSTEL
Put plainly: Inhibition of COX2. Also on record: concentration or dose not given beside the values. Particulars: concentration not given here.

Data set [3] deals with Prostaglandin G/H synthase 1 (Homo sapiens) (UniProt P23219). Nature of the data set: Inhibition of COX1. Also on record: concentration or dose not given beside the values. As to conditions: concentration not given here.
Sequence of Prostaglandin G/H synthase 1 (Homo sapiens) (P23219 whole entry): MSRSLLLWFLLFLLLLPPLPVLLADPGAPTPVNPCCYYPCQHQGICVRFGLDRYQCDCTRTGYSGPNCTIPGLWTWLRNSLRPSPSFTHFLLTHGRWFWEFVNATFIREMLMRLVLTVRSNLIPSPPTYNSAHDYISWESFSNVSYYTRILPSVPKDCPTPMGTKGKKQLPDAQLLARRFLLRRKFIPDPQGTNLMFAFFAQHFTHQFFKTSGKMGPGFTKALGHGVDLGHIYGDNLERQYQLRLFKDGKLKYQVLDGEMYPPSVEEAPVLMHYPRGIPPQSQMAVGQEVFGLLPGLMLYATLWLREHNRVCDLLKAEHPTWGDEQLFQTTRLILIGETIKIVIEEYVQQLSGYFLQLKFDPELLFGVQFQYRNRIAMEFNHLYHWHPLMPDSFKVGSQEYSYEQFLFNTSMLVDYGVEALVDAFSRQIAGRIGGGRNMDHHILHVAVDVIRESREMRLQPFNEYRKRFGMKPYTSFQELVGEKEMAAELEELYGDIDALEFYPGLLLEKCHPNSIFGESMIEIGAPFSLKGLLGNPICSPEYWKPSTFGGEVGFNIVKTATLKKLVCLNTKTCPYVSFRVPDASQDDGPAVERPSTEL
A further data set deals with Mus musculus. Put plainly: Analgesic activity in mouse assessed as protection against phenylquinone-induced writhing at 50 mg/kg, po administered 1 hr before phenylquinone challenge measured for 5 mins relative to control. In kind it is functional. (Writhing tests count abdominal constrictions after an irritant is injected.)

Take `Clc1ccc(/C=N/c2nnc(CNc3nnc4c5ccccc5nc-4s3)s2)cc1`: the LD50 at 24 h in data set [1] was over 800 mg/kg. Besides, the inhibition in vivo at 50 mg/kg with Rattus norvegicus came to 26%. Further, the figures for the inhibition in data set [2] and in data set [3] were 33.7% and 27.4%, respectively. Moreover, the Activity with Mus musculus is reported as 16.5%.
On to `COc1ccccc1/C=N/c1nnc(CNc2nnc3c4ccccc4nc-3s2)s1`, for which the LD50 at 24 h in data set [1] was over 800 mg/kg. In the data set on Rattus norvegicus, the inhibition in vivo at 50 mg/kg came out at 23.2%. Further, the inhibition was determined as 26.7% in data set [2] and 24.1% in data set [3]. In addition, the Activity in the data set on Mus musculus turned out to be 22.23%.
For `O=C1C(Cl)C(c2ccc(Cl)cc2)N1c1nnc(CNc2nnc3c4ccccc4nc-3s2)s1` (stereo not given), in that order: over 800 mg/kg, 34.7%, 72.1%, 40.9% and 25.01%.
For `Cc1ccc(/C=N/c2nnc(CNc3nnc4c5ccccc5nc-4s3)s2)cc1`, in that order: over 800 mg/kg, 20.7%, 25.4%, 23.1% and 12.67%.
On the same counts, the results for `O=C1C(Cl)C(c2ccccc2)N1c1nnc(CNc2nnc3c4ccccc4nc-3s2)s1` (stereo not given) are over 800 mg/kg, 30.6%, 74.6%, 37% and 21%.
Regarding `COc1ccccc1C1SCC(=O)N1c1nnc(CNc2nnc3c4ccccc4nc-3s2)s1` (stereo not given), in data set [1], the LD50 at 24 h is over 800 mg/kg. Besides, the inhibition in vivo at 50 mg/kg in the data set on Rattus norvegicus worked out at 31.3%. The inhibition in data set [2] turned out to be 38.5%; in data set [3] it was 33.3%. The Activity with Mus musculus came out at 22.56%.
On the same counts, the results for `CN(C)c1ccc(/C=N/c2nnc(CNc3nnc4c5ccccc5nc-4s3)s2)cc1` are over 800 mg/kg, 21.4%, 26.4%, 24.2% and 14.28%.
For `CN(C)c1ccc(C2SCC(=O)N2c2nnc(CNc3nnc4c5ccccc5nc-4s3)s2)cc1` (stereo not given), in that order: over 800 mg/kg, 28.7%, 38.1%, 32.2% and 18%.
As to `O=C1CSC(c2ccccc2)N1c1nnc(CNc2nnc3c4ccccc4nc-3s2)s1` (stereo not given), the LD50 at 24 h in data set [1] is over 800 mg/kg. In the data set with Rattus norvegicus, the inhibition in vivo at 50 mg/kg turned out to be 19.8%. Also, the inhibition worked out at 36.7% in data set [2] and 31.9% in data set [3]. The Activity in the data set on Mus musculus was found to be 9.7%.
For `Cc1ccc(C2C(Cl)C(=O)N2c2nnc(CNc3nnc4c5ccccc5nc-4s3)s2)cc1` (stereo not given), in that order: over 800 mg/kg, 32.2%, 63.6%, 38.4% and 18.76%.
On the same counts, the results for `O=C1C(Cl)C(c2ccc(O)cc2)N1c1nnc(CNc2nnc3c4ccccc4nc-3s2)s1` (stereo not given) are over 800 mg/kg, 32.7%, 71.1%, 39.3% and 19.95%.
In the case of `Oc1ccc(/C=N/c2nnc(CNc3nnc4c5ccccc5nc-4s3)s2)cc1`, in data set [1], the LD50 at 24 h was over 800 mg/kg. Moreover, the inhibition in vivo at 50 mg/kg in the data set with Rattus norvegicus came out at 24.3%. Besides, the inhibition was found to be 31.5% in data set [2] and 25.1% in data set [3]. Moreover, in the data set with Mus musculus, the Activity was determined as 16.87%.
Take `C(=N\c1nnc(CNc2nnc3c4ccccc4nc-3s2)s1)/c1ccccc1`: the LD50 at 24 h in data set [1] is over 800 mg/kg. Moreover, the inhibition in vivo at 50 mg/kg with Rattus norvegicus turned out to be 14.8%. Besides, the inhibition was found to be 24.2% in data set [2] and 22.4% in data set [3]. Besides, the Activity in the data set with Mus musculus worked out at 12.16%.
For `COc1ccc(C2SCC(=O)N2c2nnc(CNc3nnc4c5ccccc5nc-4s3)s2)cc1` (stereo not given), in that order: over 800 mg/kg, 28.1%, 40.1%, 34.3% and 10.76%.

As usually defined, the inhibition in vivo is the change of the read-out against control, counted positive when it falls. By inhibition is commonly meant the relative decrease from the control value, in per cent.
